The values below come from patent US9511091B2, “Rare earth metal compounds, methods of making, and methods of using the same” (Spectrum Pharmaceuticals, Inc., priority 2002, dated 2016).

A short description of series [1]: reactivity with respect to phosphate: phosphate removal from pH 3 Na2HPO4/HCl stock solution. To be noted: for rate of removal of phosphate compared with commercial lanthanum carbonate hydrate La2(CO3)3.H2O and La2(CO3)3.4H2O: FIGS. 17, 20, 23, pH 3; for capacity of phosphate removal (PO4 removed/g of La compound) / phosphate in solution removed: after 10 min, pH 3, La 3 times the stoichiometric amount. It is filed as binding. As for the experimental part:
A desirable lanthanum carbonate hydroxide is LaCO3OH. […] To determine the reactivity of the lanthanum carbonate hydroxide compound with respect to phosphate, the following procedure was used. A stock solution containing 13.75 g/l of anhydrous Na2HPO4 and 8.5 g/l of HCl is prepared. The stock solution is adjusted to pH 3 by the addition of concentrated HCl. 100 ml of the stock solution is placed in a beaker with a stirring bar. A sample of lanthanum carbonate hydroxide powder is added to the solution. The amount of lanthanum carbonate hydroxide powder is such that the amount of La in suspension is 3 times the stoichiometric amount needed to react completely with the phosphate. Samples of the suspension are taken at intervals, through a filter that separated all solids from the liquid. The liquid sample is analyzed for phosphorous.
(§1) To determine the reactivity of the lanthanum compound with respect to phosphate, the following test was conducted. A stock solution containing 13.75 g/l of anhydrous Na2HPO4 and 8.5 g/l of HCl was prepared. The stock solution was adjusted to pH 3 by the addition of concentrated HCl. An amount of 100 ml of the stock solution was placed in a beaker with a stirring bar. The lanthanum oxychloride from above was added to the solution to form a suspension. The amount of lanthanum oxychloride was such that the amount of La in suspension was 3 times the stoichiometric amount needed to react completely with the phosphate. Samples of the suspension were taken at time intervals, through a filter that separated all solids from the liquid. The liquid sample was analyzed for phosphorous.
as §1, with “Lanthanum carbonate hydroxide powder made as described” for “The lanthanum oxychloride from”, “solution.” for “solution to form a suspension.”, “carbonate hydroxide powder” for “oxychloride”, “intervals” for “intervals,”
(§2) To determine the reactivity of this lanthanum compound with respect to phosphate, the following test was conducted. A stock solution containing 13.75 g/l of anhydrous Na2HPO4 and 8.5 g/l of HCl was prepared. The stock solution was adjusted to pH 3 by the addition of concentrated HCl. An amount of 100 ml of the stock solution was placed in a beaker with a stirring bar. Anhydrous lanthanum oxycarbonate made as described above, was added to the solution. The amount of anhydrous lanthanum oxycarbonate was such that the amount of La in suspension was 3 times the stoichiometric amount needed to react completely with the phosphate. Samples of the suspension were taken at intervals, through a filter that separated all solids from the liquid. The liquid sample was analyzed for phosphorous.
as §2, with “reactivity of the lanthanum compound” for “reactivity of this lanthanum compound”, “stirring bar. La2CO5 powder, made as” for “stirring bar. Anhydrous lanthanum oxycarbonate made as”, “amount of lanthanum oxycarbonate” for “amount of anhydrous lanthanum oxycarbonate”, “taken at intervals through a” for “taken at intervals, through a”

The nature of series [2]: urine phosphate excretion in dogs dosed orally with capsules. To be noted: oral capsules, 2250 mg elemental lanthanum twice daily, urine approximately 24 hours after dosing. It is filed as in vivo, beagle dogs. As for the experimental part:
(§3) Six adult beagle dogs were dosed orally with capsules of LaCO3OH (compound A) or La2O2CO3 (compound B) in a cross-over design using a dose of 2250 mg elemental lanthanum twice daily (6 hours apart). The doses were administered 30 minutes after provision of food to the animals. At least 14 days washout was allowed between the crossover arms. Plasma was obtained pre-dose and 1.5, 3, 6, 7.5, 9, 12, 24, 36, 48, 60, and 72 hours after dosing and analyzed for lanthanum using ICP-MS. Urine was collected by catheterization before and approximately 24 hours after dosing and creatinine and phosphorus concentrations measured.
The tests led to reduction of urine phosphate excretion, a marker of phosphorous binding.

A short description of series [3]: plasma lanthanum exposure in dogs (ICP-MS). It is filed as in vivo, beagle dogs. To be noted: oral capsules, 2250 mg elemental lanthanum twice daily, (standard deviation). As for the experimental part:
as §3

Series [4] can be described thus: binding efficiency test, spiked water. To be noted: 0.50 g in 30.0 ml spike solution, approximately 1 mg/l of each element, 18 hrs, room temperature. As for the experimental part: Tests were run to determine the binding efficiency of eight different compounds for twenty-four different elements.
The main objective of the tests was to investigate the efficiency at which the compounds bind arsenic and selenium, in view of their use in removing those elements from drinking water. Twenty-one different anions were also included to explore further possibilities. The tests were performed as follows:
The compounds given in Table 6 were added to water and a spike and were vigorously shaken at room temperature for 18 hrs. The samples were filtered and the filtrate analyzed for a suite of elements including Sb, As, Be, Cd, Ca, Cr, Co, Cu, Fe, Pb, Mg, Mn, Mo, Ni, Se, Tl, Ti, V, Zn, Al, Ba, B, Ag, and P.
2. Add standard solutions of the elements given above to make solutions containing approximately 1 mg/l of each element.
1. Weigh 0.50 g of each compound into its own 50 ml centrifuge tube.
2. Add 30.0 ml of the spike solution to each.
3. Cap tightly and shake vigorously for 18 hrs.
4. Filter solution from each centrifuge tube through 0.2 µm syringe filter. Obtain about 6 ml of filtrate.
5. Dilute filtrates 5:10 with 2% HNO3. Final Matrix is 1% HNO3.

Series [5] is described as follows: specific surface area by the BET method. The format is physicochemical. As for the experimental part:
For each sample, the surface area measured by the BET method and the fraction of phosphate remaining after 10 min of reaction have been tabulated. […] The rate constant k1 is defined by the following equation: d[PO4]/dt=−k1[PO4]
An aqueous HCl solution having a volume of 334.75 ml and containing LaCl3 (lanthanum chloride) at a concentration of 29.2 wt % as La2O3 was added to a 4 liter beaker and heated to 80° C. with stirring. The initial pH of the LaCl3 solution was 2.2. Two hundred and sixty five ml of an aqueous solution containing 63.59 g of sodium carbonate (Na2CO3) was metered into the heated beaker using a small pump at a steady flow rate for 2 hours. Using a Buchner filtering apparatus fitted with filter paper the filtrate was separated from the white powder product. The filter cake was mixed four times, each with 2 liters of distilled water and filtered to wash away the NaCl formed during the reaction. The washed filter cake was placed into a convection oven set at 105° C. for 2 hours or until a stable weight was observed. […] The surface area of the product was determined by the BET method. The test was repeated 3 times and slightly different surface areas and different reaction rates were obtained as shown in Table 1.

The nature of series [6]: second in vivo study in rats, urinary phosphate excretion. To be noted: 0.3 or 0.6% of diet, average over days 2, 3, and 4. More on the design: species or system Sprague-Dawley rats. The source says: Six young adult male Sprague-Dawley rats were randomly assigned to each group. Test items were lanthanum oxycarbonates La2O2CO3 and La2CO5 (compound B and compound C), each tested at 0.3 and 0.6% of diet. There was an additional negative control group receiving Sigmacell cellulose in place of the test item.
The test items were mixed thoroughly into Teklad 7012CM diet. All groups received equivalent amounts of dietary nutrients.
Rats were maintained in the animal facility for at least five days prior to use, housed individually in stainless steel hanging cages. On the first day of testing, they were placed individually in metabolic cages along with their test diet. Every 24 hours, their output of urine and feces was measured and collected and their general health visually assessed. The study continued for 4 days. Food consumption for each day of the study was recorded. Starting and ending animal weights were recorded.
Urine samples were assayed for phosphorus, calcium, and creatinine concentration in a Hitachi 912 analyzer using Roche reagents. Urinary excretion of phosphorus per day was calculated for each rat from daily urine volume and phosphorus concentration. […] Food consumption was good for all groups. […]

As for `O=C([O-])[O-].[La+3].[OH-]` [A, lanthanum carbonate hydroxide], in series [1], the “rate of removal of phosphate compared with commercial lanthanum carbonate hydrate La2(CO3)3.H2O and La2(CO3)3.4H2O” value is listed as “faster”; the “capacity of phosphate removal (PO4 removed/g of La compound)” value is 110 mg PO4/g; the “phosphate in solution removed” value is 86%. In addition, in series [2], the “Median phosphorus/creatinine ratio (% reduction compared to pre-dose value)” value is 48.4%. Moreover, in series [3], the “Maximum concentration Cmax, plasma lanthanum” value is on record as 2.77 (2.1) ng/mL and the “Mean (sd) Area Under the Curve0-72 h, plasma lanthanum” value is listed as 54.6 (28.0) ng-h/mL. In series [4], the “% Analyte Removed As” value is reported as 29%, the “% Analyte Removed Be” value stood at 53%, the “% Analyte Removed Ca” value stood at 28% and the “% Analyte Removed Cd” value is recorded as 37%. Besides, in series [4], the “% Analyte Removed Co” value was determined as 29%, the “% Analyte Removed Cr” value came out at 100%, the “% Analyte Removed Cu” value was determined as 10% and the “% Analyte Removed Fe” value is reported as 58%. Moreover, in series [4], the “% Analyte Removed Mg” value amounted to 0%, the “% Analyte Removed Mn” value turned out to be 25%, the “% Analyte Removed Pb” value is 98% and the “% Analyte Removed Sb” value is listed as 87%.
As to `O=C([O-])[O-].[La+3].[La+3].[O-2].[O-2]` [Compound B, anhydrous lanthanum oxycarbonate], in series [1], the “rate of removal of phosphate compared with commercial lanthanum carbonate hydrate La2(CO3)3.H2O and La2(CO3)3.4H2O” value is “faster”; the “capacity of phosphate removal (PO4 removed/g of La compound)” value is 120 mg PO4/g; the “phosphate in solution removed” value is given as 73%. Besides, the “surface area of the white powder” value in series [5] (one of three repeats of Example 5) came to 26.95 m^2/gm. Moreover, the “Median phosphorus/creatinine ratio (% reduction compared to pre-dose value)” value in series [2] was determined as 37.0%. Besides, in series [3], the “Maximum concentration Cmax, plasma lanthanum” value is recorded as 2.45 (2.2) ng/mL and the “Mean (sd) Area Under the Curve0-72 h, plasma lanthanum” value is recorded as 42.7 (34.8) ng-h/mL. For the same compound, the Urinary phosphate excretion in series [6] worked out at 2.3 mg/day. Also, in series [4], the “% Analyte Removed As” value is recorded as 92%, the “% Analyte Removed Be” value is on record as 100%, the “% Analyte Removed Ca” value was 21% and the “% Analyte Removed Cd” value amounted to 85%. In addition, in series [4], the “% Analyte Removed Co” value is listed as 59%, the “% Analyte Removed Cr” value is 100%, the “% Analyte Removed Cu” value is on record as 98% and the “% Analyte Removed Fe” value worked out at 100%. In series [4], the “% Analyte Removed Mg” value came to 0%, the “% Analyte Removed Mn” value amounted to 99%, the “% Analyte Removed Pb” value was determined as 99% and the “% Analyte Removed Sb” value is reported as 97%.
Turning to `O.O=C([O-])[O-].O=C([O-])[O-].O=C([O-])[O-].[La+3].[La+3]` [Sample 10, La2(CO3)3•1H2O, reference compound], the “rate of removal of phosphate compared with LaOCl of Example 1” value in series [1] (FIG. 14, pH 3) is listed as “faster at the beginning but slower after about 3 minutes”. In addition, the “Initial 1st order rate constant k1” value in series [1] (calculated from the experimental points for the first minute of the reaction, pH 3) is 0.094 min⁻¹. Further, the “Fraction of PO4 remaining after 10 min” value in series [1] (pH 3 stock solution, La 3 times the stoichiometric amount, 10 min) is reported as 0.790. The compound also gave a BET surface area in series [5] of 2.9 m^2/g.
For lanthanum oxycarbonate [Compound C], the “rate of removal of phosphate compared with commercial lanthanum carbonate hydrate La2(CO3)3.H2O and La2(CO3)3.4H2O” value in series [1] is on record as “faster”. In addition, the Urinary phosphate excretion in series [6] is recorded as 1.9 mg/day. In series [4], the “% Analyte Removed As” value is recorded as 93%, the “% Analyte Removed Be” value is 100%, the “% Analyte Removed Ca” value is reported as 0% and the “% Analyte Removed Cd” value turned out to be 83%. For the same compound, in series [4], the “% Analyte Removed Co” value is on record as 52%, the “% Analyte Removed Cr” value is on record as 100%, the “% Analyte Removed Cu” value turned out to be 97% and the “% Analyte Removed Fe” value turned out to be 100%. In addition, in series [4], the “% Analyte Removed Mg” value came out at 0%, the “% Analyte Removed Mn” value is on record as 99%, the “% Analyte Removed Pb” value turned out to be 99% and the “% Analyte Removed Sb” value amounted to 96%.
